From US10710978B2, “STK4 inhibitors for treatment of hematologic malignancies” (Dana-Farber Cancer Institute, Inc., priority 2015, dated 2020)
Where two headings read alike, the source gives them in different places.

Experiments:
Experiment in all cases: KiNativ assay
Assay type in all cases: binding
Conditions in all cases: H929 live cell
HPK1 = HPK1 (Homo sapiens (Human), UniProt Q92918)
Description: (§1) Biochemical IC50s of the compounds of the present disclosure against various kinases were measured in a KiNativ assay. Compounds were screened in duplicate at 10 μM in H929 live cell. IC50 was measured via Mass spectroscopy (MS).

SNRK = SNRK (Homo sapiens (Human), UniProt Q9NRH2)
Description: as §1

CK1a = CK1a (Homo sapiens (Human), UniProt P48729)
Description: as §1

PKD2 = PKD2 (Homo sapiens (Human), UniProt Q9BZL6)
Description: as §1

CDK11, CDK8 = test system: CDK11, CDK8
Description: as §1

RSK2 domain1 = RSK2 domain1 (Homo sapiens (Human), UniProt P51812)
Description: as §1

MAP2K6 = MAP2K6 (Homo sapiens (Human), UniProt P52564)
Description: as §1

ILK = ILK (Homo sapiens (Human), UniProt Q13418)
Sequence of ILK (Q13418 whole entry): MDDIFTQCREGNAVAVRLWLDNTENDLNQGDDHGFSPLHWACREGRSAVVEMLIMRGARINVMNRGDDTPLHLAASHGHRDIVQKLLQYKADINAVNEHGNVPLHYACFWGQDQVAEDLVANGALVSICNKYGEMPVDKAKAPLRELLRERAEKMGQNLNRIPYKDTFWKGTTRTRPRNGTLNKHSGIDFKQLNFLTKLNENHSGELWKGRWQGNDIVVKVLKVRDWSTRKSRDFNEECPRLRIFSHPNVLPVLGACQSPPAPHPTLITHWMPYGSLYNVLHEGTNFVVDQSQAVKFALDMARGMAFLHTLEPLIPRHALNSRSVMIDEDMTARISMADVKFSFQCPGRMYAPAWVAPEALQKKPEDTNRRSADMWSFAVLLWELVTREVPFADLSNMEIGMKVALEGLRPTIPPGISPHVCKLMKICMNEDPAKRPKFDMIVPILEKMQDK
Description: as §1

MPSK1 = MPSK1 (Homo sapiens (Human), UniProt O75716)
Sequence of MPSK1 (O75716 whole entry): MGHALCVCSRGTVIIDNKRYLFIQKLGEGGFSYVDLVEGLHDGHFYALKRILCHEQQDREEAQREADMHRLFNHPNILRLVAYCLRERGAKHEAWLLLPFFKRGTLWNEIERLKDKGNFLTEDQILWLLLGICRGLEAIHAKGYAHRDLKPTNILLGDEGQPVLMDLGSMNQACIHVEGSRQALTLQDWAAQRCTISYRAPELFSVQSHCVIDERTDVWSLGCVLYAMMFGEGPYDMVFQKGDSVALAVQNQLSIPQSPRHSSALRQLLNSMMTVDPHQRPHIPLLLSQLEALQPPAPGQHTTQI
Description: as §1

NEK7 = NEK7 (Homo sapiens (Human), UniProt Q8TDX7)
Sequence of NEK7 (Q8TDX7 whole entry): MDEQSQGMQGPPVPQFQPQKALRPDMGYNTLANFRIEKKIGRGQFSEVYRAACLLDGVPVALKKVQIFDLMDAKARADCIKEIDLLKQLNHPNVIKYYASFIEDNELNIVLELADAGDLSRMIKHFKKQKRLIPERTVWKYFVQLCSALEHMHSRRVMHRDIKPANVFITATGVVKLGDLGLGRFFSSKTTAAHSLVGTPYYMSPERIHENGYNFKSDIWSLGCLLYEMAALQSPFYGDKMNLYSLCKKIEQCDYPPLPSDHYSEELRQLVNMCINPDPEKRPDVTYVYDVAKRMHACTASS
Description: as §1

CaMK2d = CaMK2d (Homo sapiens (Human), UniProt Q13557)
Description: as §1

PLK1 = PLK1 (Homo sapiens (Human), UniProt P53350)
Description: as §1

EphB2 = EphB2 (Homo sapiens (Human), UniProt P29323)
Description: as §1

NEK4 = NEK4 (Homo sapiens (Human), UniProt P51957)
Description: as §1

PEK = PEK (Homo sapiens (Human), UniProt Q9NZJ5)
Sequence of PEK (Q9NZJ5 30-1116): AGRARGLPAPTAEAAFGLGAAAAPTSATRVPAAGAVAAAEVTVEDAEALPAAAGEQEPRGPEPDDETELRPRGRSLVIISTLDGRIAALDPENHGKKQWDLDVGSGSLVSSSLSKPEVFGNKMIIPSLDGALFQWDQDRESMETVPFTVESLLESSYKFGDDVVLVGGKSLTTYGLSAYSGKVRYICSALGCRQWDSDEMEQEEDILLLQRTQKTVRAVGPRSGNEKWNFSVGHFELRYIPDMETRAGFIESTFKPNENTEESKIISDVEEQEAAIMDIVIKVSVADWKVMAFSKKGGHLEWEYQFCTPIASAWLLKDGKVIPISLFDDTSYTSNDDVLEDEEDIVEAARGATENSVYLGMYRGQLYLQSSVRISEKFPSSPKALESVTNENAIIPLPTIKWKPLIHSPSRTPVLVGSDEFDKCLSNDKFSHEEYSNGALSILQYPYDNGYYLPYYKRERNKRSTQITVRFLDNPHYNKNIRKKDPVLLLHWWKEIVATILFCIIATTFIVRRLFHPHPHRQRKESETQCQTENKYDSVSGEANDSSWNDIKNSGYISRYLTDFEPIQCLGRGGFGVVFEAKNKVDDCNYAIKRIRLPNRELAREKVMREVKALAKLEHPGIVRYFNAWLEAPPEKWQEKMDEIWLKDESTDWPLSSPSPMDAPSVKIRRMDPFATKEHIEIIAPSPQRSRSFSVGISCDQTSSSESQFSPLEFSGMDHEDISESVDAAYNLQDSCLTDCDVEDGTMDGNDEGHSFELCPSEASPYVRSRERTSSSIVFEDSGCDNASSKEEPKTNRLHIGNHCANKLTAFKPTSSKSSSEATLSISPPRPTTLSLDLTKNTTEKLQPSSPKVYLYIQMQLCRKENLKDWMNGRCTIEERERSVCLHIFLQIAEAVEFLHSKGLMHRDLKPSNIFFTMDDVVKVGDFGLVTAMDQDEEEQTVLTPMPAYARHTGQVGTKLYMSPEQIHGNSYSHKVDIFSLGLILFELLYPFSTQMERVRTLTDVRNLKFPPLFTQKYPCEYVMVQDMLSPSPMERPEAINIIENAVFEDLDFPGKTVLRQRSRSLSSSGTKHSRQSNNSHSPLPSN
Description: as §1

MST4 = test system: MST4
Description: as §1

STLK5 = STLK5 (Homo sapiens (Human), UniProt Q7RTN6)
Description: as §1

PRPK = PRPK (Homo sapiens (Human), UniProt Q96S44)
Description: as §1

p38d, p38g = test system: p38d, p38g
Description: as §1

RSK1 domain1 = RSK1 domain1 (Homo sapiens (Human), UniProt Q15418)
Description: as §1

MAP2K3 = MAP2K3 (Homo sapiens (Human), UniProt P46734)
Sequence of MAP2K3 (P46734 whole entry): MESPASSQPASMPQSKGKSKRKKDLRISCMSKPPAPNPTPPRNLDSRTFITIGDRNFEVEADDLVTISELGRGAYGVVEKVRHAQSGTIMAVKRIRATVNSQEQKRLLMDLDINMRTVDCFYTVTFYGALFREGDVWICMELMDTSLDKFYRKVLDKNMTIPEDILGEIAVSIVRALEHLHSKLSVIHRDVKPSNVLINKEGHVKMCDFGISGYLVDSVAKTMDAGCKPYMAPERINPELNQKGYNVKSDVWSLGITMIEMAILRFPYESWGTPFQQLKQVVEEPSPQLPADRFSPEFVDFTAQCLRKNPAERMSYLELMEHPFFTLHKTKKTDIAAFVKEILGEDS
Description: as §1

GCN2 domain2 = GCN2 domain2 (Homo sapiens (Human), UniProt Q9P2K8)
Sequence of GCN2 domain2 (Q9P2K8 whole entry, the tested form may be a part): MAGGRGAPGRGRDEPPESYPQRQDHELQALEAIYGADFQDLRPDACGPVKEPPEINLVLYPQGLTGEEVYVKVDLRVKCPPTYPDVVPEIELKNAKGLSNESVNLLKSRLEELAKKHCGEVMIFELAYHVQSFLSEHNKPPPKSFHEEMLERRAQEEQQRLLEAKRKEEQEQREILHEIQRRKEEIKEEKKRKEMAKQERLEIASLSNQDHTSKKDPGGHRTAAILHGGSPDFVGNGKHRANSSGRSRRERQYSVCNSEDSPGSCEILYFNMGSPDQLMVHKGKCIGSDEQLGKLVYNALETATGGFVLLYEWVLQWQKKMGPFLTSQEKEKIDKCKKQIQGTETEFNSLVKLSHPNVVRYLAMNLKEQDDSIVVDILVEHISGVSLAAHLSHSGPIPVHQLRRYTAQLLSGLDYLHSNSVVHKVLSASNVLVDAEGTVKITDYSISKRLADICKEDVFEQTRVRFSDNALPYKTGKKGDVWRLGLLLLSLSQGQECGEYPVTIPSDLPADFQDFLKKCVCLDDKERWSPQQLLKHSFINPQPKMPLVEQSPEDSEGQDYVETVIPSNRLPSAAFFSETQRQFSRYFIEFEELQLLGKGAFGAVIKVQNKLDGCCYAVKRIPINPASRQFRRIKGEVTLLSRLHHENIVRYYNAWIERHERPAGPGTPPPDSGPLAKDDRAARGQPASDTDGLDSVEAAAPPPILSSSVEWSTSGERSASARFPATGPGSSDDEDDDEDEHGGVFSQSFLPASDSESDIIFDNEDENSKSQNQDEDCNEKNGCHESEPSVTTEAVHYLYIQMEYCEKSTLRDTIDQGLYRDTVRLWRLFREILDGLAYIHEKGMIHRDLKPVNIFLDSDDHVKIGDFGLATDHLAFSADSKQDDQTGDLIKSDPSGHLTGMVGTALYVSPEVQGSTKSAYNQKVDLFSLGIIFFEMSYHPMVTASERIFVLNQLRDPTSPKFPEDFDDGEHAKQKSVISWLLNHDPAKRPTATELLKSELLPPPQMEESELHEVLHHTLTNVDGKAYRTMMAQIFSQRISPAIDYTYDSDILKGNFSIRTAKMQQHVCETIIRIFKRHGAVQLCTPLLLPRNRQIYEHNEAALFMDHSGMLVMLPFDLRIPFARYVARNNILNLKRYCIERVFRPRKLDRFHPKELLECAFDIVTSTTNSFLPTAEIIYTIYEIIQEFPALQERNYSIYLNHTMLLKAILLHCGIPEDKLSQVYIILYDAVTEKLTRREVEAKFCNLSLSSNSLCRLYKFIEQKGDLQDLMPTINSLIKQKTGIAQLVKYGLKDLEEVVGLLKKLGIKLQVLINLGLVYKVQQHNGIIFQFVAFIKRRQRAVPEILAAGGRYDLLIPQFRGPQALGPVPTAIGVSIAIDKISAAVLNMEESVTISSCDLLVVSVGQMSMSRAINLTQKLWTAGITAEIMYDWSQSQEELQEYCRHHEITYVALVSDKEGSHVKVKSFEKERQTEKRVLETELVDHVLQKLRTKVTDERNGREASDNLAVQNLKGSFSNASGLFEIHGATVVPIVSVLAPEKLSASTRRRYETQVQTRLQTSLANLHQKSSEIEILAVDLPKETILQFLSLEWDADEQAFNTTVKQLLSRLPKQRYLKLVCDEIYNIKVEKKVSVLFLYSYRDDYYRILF
Description: as §1

TLK2 = TLK2 (Homo sapiens (Human), UniProt Q86UE8)
Description: as §1

NuaK2 = NuaK2 (Homo sapiens (Human), UniProt Q9H093)
Description: as §1

PIP4K2A = PIP4K2A (Homo sapiens (Human), UniProt P48426)
Description: as §1

RSK1 domain2 = RSK1 domain2 (Homo sapiens (Human), UniProt Q15418)
Description: as §1

MASTL = MASTL (Homo sapiens (Human), UniProt Q96GX5)
Sequence of MASTL (Q96GX5 whole entry): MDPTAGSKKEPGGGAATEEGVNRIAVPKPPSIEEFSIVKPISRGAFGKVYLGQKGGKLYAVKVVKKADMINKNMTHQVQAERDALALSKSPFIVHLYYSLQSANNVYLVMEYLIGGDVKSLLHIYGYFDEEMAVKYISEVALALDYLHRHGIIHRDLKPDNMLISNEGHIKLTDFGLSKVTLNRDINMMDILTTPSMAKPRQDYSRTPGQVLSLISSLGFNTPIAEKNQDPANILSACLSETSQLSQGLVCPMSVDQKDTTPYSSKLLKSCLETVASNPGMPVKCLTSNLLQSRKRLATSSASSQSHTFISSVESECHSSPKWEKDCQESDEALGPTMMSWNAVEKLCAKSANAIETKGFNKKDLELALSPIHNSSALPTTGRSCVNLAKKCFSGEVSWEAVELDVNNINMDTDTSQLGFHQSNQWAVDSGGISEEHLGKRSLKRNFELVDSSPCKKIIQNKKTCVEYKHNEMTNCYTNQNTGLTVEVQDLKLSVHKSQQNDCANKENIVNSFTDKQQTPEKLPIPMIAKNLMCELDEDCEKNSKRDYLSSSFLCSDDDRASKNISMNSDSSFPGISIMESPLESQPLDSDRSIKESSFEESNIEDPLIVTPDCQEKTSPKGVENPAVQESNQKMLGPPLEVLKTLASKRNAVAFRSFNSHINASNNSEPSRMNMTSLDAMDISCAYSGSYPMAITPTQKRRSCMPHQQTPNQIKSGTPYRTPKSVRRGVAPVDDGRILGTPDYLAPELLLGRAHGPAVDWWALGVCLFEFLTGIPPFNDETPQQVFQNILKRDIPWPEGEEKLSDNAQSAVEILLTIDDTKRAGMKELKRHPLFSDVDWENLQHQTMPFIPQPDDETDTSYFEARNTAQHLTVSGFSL
Description: as §1

CDK5 = CDK5 (Homo sapiens (Human), UniProt Q00535)
Description: as §1

CDK2 = CDK2 (Homo sapiens (Human), UniProt P24941)
Description: as §1

PIK3C3 = PIK3C3 (Homo sapiens (Human), UniProt Q8NEB9)
Description: as §1

JAK1 domain1 = JAK1 domain1 (Homo sapiens (Human), UniProt P23458)
Description: as §1

ACK = ACK (Homo sapiens (Human), UniProt Q07912)
Description: as §1

SRPK2 = SRPK2 (Homo sapiens (Human), UniProt P78362)
Description: as §1

[1] = range class, read-out: % inhibition

Structure (SMILES): Nc1ncc(-c2ccc(NS(=O)(=O)C3CC3)cc2OC2CCCCC2)cc1-c1ccc2c(c1)CCNC2=O [Compound I-65, N-(4-(6-amino-5-(1-oxo-1,2,3,4-tetrahydroisoquinolin-6-yl)pyridin-3-yl)-3-(cyclohexyloxy)phenyl) cyclopropanesulfonamide]
- inhibition at 10 µM (HPK1; [1]): > 90%
- inhibition at 10 µM (HPK1; read-out: inhibition (10 μM)): 95.5%
- inhibition at 10 µM (SNRK; [1]): 0%
- inhibition at 10 µM (SNRK; read-out: inhibition (10 μM)): 1.1%
- inhibition at 10 µM (CK1a; [1]): 0%
- inhibition at 10 µM (CK1a; read-out: inhibition (10 μM)): -65.1%
- inhibition at 10 µM (PKD2; [1]): 0%
- inhibition at 10 µM (PKD2; read-out: inhibition (10 μM)): -33.4%
- % inhibition (CDK11, CDK8; 10 μM, range class): 0.0%
- inhibition (10 μM) (CDK11, CDK8): 31.3%
- inhibition at 10 µM (RSK2 domain1; [1]): 75 to 90%
- inhibition at 10 µM (RSK2 domain1; read-out: inhibition (10 μM)): 79.4%
- inhibition at 10 µM (MAP2K6; [1]): 0%
- inhibition at 10 µM (MAP2K6; read-out: inhibition (10 μM)): -15%
- inhibition at 10 µM (ILK; [1]): 0%
- inhibition at 10 µM (ILK; read-out: inhibition (10 μM)): -35%
- inhibition at 10 µM (MPSK1; [1]): 50 to 75%
- inhibition at 10 µM (MPSK1; read-out: inhibition (10 μM)): 72.8%
- inhibition at 10 µM (NEK7; [1]): 0%
- inhibition at 10 µM (NEK7; read-out: inhibition (10 μM)): -80%
- inhibition at 10 µM (CaMK2d; [1]): 0%
- inhibition at 10 µM (CaMK2d; read-out: inhibition (10 μM)): 4.2%
- inhibition at 10 µM (PLK1; [1]): 0%
- inhibition at 10 µM (PLK1; read-out: inhibition (10 μM)): -10.1%
- inhibition at 10 µM (EphB2; [1]): 0%
- inhibition at 10 µM (EphB2; read-out: inhibition (10 μM)): 20.3%
- inhibition at 10 µM (NEK4; [1]): 0%
- inhibition at 10 µM (NEK4; read-out: inhibition (10 μM)): 23.7%
- inhibition at 10 µM (PEK; [1]): 0%
- inhibition at 10 µM (PEK; read-out: inhibition (10 μM)): -12.9%
- % inhibition (MST4; 10 μM, range class): 35-40%
- inhibition (10 μM) (MST4): 47.7%
- inhibition at 10 µM (STLK5; [1]): 0%
- inhibition at 10 µM (STLK5; read-out: inhibition (10 μM)): -38.6%
- inhibition at 10 µM (PRPK; [1]): 0%
- inhibition at 10 µM (PRPK; read-out: inhibition (10 μM)): -55.9%
- % inhibition (p38d, p38g; 10 μM, range class): 0.0%
- inhibition (10 μM) (p38d, p38g): −8.5%
- inhibition at 10 µM (RSK1 domain1; [1]): 50 to 75%
- inhibition at 10 µM (RSK1 domain1; read-out: inhibition (10 μM)): 59.9%
- inhibition at 10 µM (MAP2K3; [1]): 0%
- inhibition at 10 µM (MAP2K3; read-out: inhibition (10 μM)): -6.1%
- inhibition at 10 µM (GCN2 domain2; [1]): 35 to 40%
- inhibition at 10 µM (GCN2 domain2; read-out: inhibition (10 μM)): 43.5%
- inhibition at 10 µM (TLK2; [1]): 0%
- inhibition at 10 µM (TLK2; read-out: inhibition (10 μM)): -3.5%
- inhibition at 10 µM (NuaK2; [1]): 35 to 40%
- inhibition at 10 µM (NuaK2; read-out: inhibition (10 μM)): 48.7%
- inhibition at 10 µM (PIP4K2A; [1]): 0%
- inhibition at 10 µM (PIP4K2A; read-out: inhibition (10 μM)): -4.6%
- inhibition at 10 µM (RSK1 domain2; [1]): 0%
- inhibition at 10 µM (RSK1 domain2; read-out: inhibition (10 μM)): -0.7%
- inhibition at 10 µM (MASTL; [1]): 0%
- inhibition at 10 µM (MASTL; read-out: inhibition (10 μM)): -9.6%
- inhibition at 10 µM (CDK5; [1]): 0%
- inhibition at 10 µM (CDK5; read-out: inhibition (10 μM)): 4.9%
- inhibition at 10 µM (CDK2; [1]): 0%
- inhibition at 10 µM (CDK2; read-out: inhibition (10 μM)): 21.6%
- inhibition at 10 µM (PIK3C3; [1]): 0%
- inhibition at 10 µM (PIK3C3; read-out: inhibition (10 μM)): -15%
- inhibition at 10 µM (JAK1 domain1; [1]): 0%
- inhibition at 10 µM (JAK1 domain1; read-out: inhibition (10 μM)): 2.1%
- inhibition at 10 µM (ACK; [1]): 0%
- inhibition at 10 µM (ACK; read-out: inhibition (10 μM)): 30.7%
- inhibition at 10 µM (SRPK2; [1]): 0%
- inhibition at 10 µM (SRPK2; read-out: inhibition (10 μM)): -29.4%
